Experimental findings from patent US5519024A, “Quinolonecarboxylic acid derivatives and their use” (Takeda Chemical Industries, Ltd., priority 1993, dated 1996) are described below.

The target in this experiment is T1, GPIIb/IIIa (Homo sapiens, UniProt P05106+P08514).
T1 construct: Purification of GPIIb/IIIa from HEL cells; endogenous in cells; host or cells: HEL cells (HEL 92.1.7, ATCC TIB180); endogenous complex solubilized with Triton X-100 and purified in house
Briefly: Inhibitory activity against binding of GPIIb/IIIa and fibrinogen. The settings on record: for inhibition at 10 µM / inhibition at 1 µM: Table 2, read-out: GPIIb/IIIa Fibrinogen Binding Inhibitory Activity; for inhibition at 10 µM: 10^-5 M; for inhibition at 1 µM: 10^-6 M; for GPIIb/IIIa Fibrinogen Binding Inhibitory Activity: Table 1. The gist of the method:
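Plates were coated with GPIIb/IIIa purified from HEL cells (1 μg/ml) and blocked with BSA. Test sample and biotinylated human fibrinogen (added as 100 nM solution) reacted 3 h at 30° C or overnight at room temperature in Tris buffer, 2 mM CaCl2, pH 7.4. Bound fibrinogen was detected with anti-biotin alkaline phosphatase and p-nitrophenyl phosphate.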

T1 sequence (P08514 32-887 limits assumed): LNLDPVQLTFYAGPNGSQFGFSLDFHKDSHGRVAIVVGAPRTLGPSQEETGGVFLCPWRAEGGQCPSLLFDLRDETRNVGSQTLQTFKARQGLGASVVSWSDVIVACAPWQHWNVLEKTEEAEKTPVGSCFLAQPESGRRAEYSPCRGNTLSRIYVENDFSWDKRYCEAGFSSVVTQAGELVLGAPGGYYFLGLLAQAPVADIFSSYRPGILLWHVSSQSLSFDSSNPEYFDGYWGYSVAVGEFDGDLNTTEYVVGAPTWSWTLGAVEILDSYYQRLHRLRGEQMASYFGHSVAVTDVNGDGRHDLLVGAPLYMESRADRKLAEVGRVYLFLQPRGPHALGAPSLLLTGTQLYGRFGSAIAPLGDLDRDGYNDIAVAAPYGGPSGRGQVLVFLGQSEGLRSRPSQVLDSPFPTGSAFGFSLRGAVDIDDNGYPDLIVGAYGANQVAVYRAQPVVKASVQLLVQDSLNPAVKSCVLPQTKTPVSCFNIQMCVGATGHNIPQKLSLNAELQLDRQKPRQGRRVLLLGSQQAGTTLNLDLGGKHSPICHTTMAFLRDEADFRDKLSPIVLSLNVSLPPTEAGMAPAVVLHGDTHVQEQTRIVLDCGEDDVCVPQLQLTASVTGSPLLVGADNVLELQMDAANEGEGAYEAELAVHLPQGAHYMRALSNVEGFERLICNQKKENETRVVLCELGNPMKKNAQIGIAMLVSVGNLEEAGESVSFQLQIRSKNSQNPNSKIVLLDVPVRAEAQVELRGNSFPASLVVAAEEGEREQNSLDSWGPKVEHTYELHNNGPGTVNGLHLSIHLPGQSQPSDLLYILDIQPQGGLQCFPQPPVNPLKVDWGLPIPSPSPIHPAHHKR
T1 sequence (P08514 891-1039 limits assumed): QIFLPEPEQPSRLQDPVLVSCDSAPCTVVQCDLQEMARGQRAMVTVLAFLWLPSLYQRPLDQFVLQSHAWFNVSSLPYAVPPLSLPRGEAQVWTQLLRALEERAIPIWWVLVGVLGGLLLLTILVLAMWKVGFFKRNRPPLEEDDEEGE
T1 sequence (P05106 27-788): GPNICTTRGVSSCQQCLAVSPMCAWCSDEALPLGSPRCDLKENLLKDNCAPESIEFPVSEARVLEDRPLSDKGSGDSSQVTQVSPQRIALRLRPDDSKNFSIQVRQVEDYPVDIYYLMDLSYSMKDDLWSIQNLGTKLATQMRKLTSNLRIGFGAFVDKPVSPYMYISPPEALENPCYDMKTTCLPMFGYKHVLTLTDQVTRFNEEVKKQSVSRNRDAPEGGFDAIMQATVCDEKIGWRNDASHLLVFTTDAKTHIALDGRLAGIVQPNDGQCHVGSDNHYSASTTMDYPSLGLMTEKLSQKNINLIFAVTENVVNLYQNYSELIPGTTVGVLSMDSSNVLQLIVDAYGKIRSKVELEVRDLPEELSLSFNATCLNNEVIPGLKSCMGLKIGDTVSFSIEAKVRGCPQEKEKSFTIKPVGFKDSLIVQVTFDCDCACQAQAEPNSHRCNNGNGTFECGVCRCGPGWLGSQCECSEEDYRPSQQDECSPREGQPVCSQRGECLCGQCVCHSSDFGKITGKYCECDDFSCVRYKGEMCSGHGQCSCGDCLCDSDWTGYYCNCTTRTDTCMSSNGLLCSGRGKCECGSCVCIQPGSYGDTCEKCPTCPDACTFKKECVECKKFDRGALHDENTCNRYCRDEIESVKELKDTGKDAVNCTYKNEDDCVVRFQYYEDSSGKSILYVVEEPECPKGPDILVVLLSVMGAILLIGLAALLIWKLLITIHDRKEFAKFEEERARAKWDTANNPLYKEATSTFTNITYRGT

`COc1ccc(Cn2cc(C(=O)O)c(=O)c3ccc(N4CCC(C5CCNCC5)CC4)cc32)cc1` [Compound 77, 1-(4-Methoxybenzyl)-7-[4-(4-piperidinyl)piperidin-1-yl]-1,4-dihydro-4-oxoquinoline-3-carboxylic acid]: the inhibition at 10 µM was 94.5% and the inhibition at 1 µM was found to be 100%.

On to Romechloxaxin [reference compound], for which the “GPIIb/IIIa Fibrinogen Binding Inhibitory Activity” value runs as follows: (1 × 10^-5 M) 59.6%; (1 × 10^-6 M) 22.8%.

With `Cc1cnc2n1CCN(c1c(F)cc3c(=O)c(C(=O)O)cn(C4CC4)c3c1F)C2` [Compound 29], the inhibition at 10 µM is 68.7% and the inhibition at 1 µM turned out to be 38.4%.

Regarding `O=C(O)c1cn(C2CC2)c2c(F)c(N3CCn4ccnc4C3)c(F)cc2c1=O` [Compound 18], the inhibition at 10 µM amounted to 42.6% and the inhibition at 1 µM was 30.5%. As for `NC1CCCN(c2c(F)cc3c(=O)c(C(=O)O)cn(C4CC4)c3c2F)C1` (centres unmarked) [Compound 38], the inhibition at 10 µM was 50.8% and the inhibition at 1 µM came out at 31.9%.

As for `O=C(O)c1cn(Cc2nccs2)c2c(F)c(N3CCN(c4cccnc4)CC3)c(F)cc2c1=O` [Compound 66], the inhibition at 10 µM was found to be 100% and the inhibition at 1 µM was 86.7%. For `NC1CN(c2c(F)cc3c(=O)c(C(=O)O)cn(C4CC4)c3c2F)Cc2ccccc21` (centres unmarked) [Compound 35] the same measures were 51.8% and 21.5%. For `CCn1cc(C(=O)O)c(=O)c2cc(F)c(SC3CCN(C)CC3)cc21` [Compound 5] the same measures were 60.3% and 26%. Take `O=C(O)c1cn(Cc2nccs2)c2c(F)c(N3CCN(c4ccccn4)CC3)c(F)cc2c1=O` [Compound 65]: the inhibition at 10 µM is 100% and the inhibition at 1 µM stood at 81.2%. For `O=C(O)c1cn(C2CC2)c2c(F)c(N3CCc4ccccc4C3)c(F)cc2c1=O` [Compound 34] the same measures were 77% and 49.4%.

Take `CCNCC1CCN(c2c(F)cc3c(=O)c(C(=O)O)cn(C4CC4)c3c2F)C1` (centres unmarked) [Compound 23]: the inhibition at 10 µM was 72.3% and the inhibition at 1 µM turned out to be 36.2%. As for `NCc1nc2c(s1)CCN(c1c(F)cc3c(=O)c(C(=O)O)cn(C4CC4)c3c1F)C2` [Compound 48], the inhibition at 1 µM is 57.7%.
